Source: patent publication US6344457B1, “Amino acid derivatives inhibiting extracellular matrix metalloproteinase and TNF alpha release” (Chiesi Farmaceutici S.p.A., priority 1997, dated 2002)
Like-named read-outs stand apart in the source and are kept apart here.

Tests used:
[1] = target: 92 kDa gelatinase of human origin (Homo sapiens, UniProt P14780); assay: Activity on gelatinase, radiomarked gelatin; format: biochemical; details: for IC50: test performed with radiomarked gelatin, read-out: C150 (nM) gelatinase 92 kDa*; for gelatinase 92 kDa* (in %): radiomarked gelatin, concentration not given
Protocol: The anti-gelatinase activity of the compounds according to the invention also was determined on 92 kDa or 72 kDa gelatinase of human origin, in accordance with the operating mode described by Harris, E. D., Krane, S. M.; (Biochem. Biophys. Acta, 258, 566-576, 1972).
(§1) The gelatinase was incubated at 37° C. for 16 hours with radiomarked gelatin, and its activity was determined by the release of the soluble peptides produced by the enzymatic breakdown of the gelatin. The inhibiting concentration C150 for each compound was determined by measurement of the activity of the enzyme in the presence of the inhibitor at a concentration ranging between 10^−7 and 10^−12 M (the inhibitor is dissolved in the same manner as for collagenase).

[2] = target: T1, 72 kDa gelatinase of human origin (Homo sapiens, UniProt P08253); assay: Activity on gelatinase, synthetic substrate; format: biochemical; details: performed on synthetic substrate; read-out: C150 (nM) gelatinase 72 kDa**
T1 sequence (P08253 110-660): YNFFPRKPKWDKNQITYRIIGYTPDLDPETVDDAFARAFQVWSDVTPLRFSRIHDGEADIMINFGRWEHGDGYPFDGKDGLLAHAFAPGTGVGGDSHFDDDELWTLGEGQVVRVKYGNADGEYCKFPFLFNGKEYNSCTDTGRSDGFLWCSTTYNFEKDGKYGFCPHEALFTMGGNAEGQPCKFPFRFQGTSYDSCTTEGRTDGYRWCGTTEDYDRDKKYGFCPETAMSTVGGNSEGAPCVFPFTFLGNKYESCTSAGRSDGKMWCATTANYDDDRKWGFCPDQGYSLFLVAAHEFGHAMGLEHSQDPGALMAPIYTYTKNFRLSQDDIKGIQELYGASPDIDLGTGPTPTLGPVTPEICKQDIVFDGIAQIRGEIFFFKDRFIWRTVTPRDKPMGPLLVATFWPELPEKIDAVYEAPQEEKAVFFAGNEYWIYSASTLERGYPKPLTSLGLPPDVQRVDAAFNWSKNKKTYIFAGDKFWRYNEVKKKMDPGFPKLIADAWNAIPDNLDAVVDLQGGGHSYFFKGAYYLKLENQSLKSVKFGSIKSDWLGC
Protocol: The anti-gelatinase activity of the compounds according to the invention was determined on 72 kDa gelatinase of human origin, in accordance with the operating mode described by Knight, C. G., Willenbrock, F., Murphy, G. (FEBS Letters, 296 (3), 263-266, 1992).
The gelatinase was incubated at 37° C. for 10 minutes, and its activity was determined by the increase in fluorescence of the product of Mca-Pro-Leu breakdown of the Mca-Pro-Leu-Gly-Leu-Dpa-Ala-Arg-NH2 synthetic substrate.
The inhibiting concentration C150 for each compound was determined by measurement of the activity of the enzyme in the presence of the inhibitor at a concentration ranging between 10^−7 and 10^−12 M (the inhibitor is dissolved at a concentration of 10^−2 M in DMSO, then diluted successively by tenths in DMSO to 10^−4 M, then in the buffer: Tris, HCl 50 mM+0.05% Brij 35; CaCl2 10 mM; NaCl 0.15 M).

[3] = target: stromelysine of human origin (Homo sapiens, UniProt P08254); assay: Activity on stromelysine; format: biochemical; details: radiomarked transferrin, 37° C., 16 hours; read-out: C150 (nM) stromelysine
Protocol: as §1, with “stromelysine” for “gelatinase”, “transferrin,” for “gelatin,”, “transferrin.” for “gelatin.”

[4] = target: T2, collagenase of the human monocytic stock U937 (Homo sapiens, UniProt P03956); assay: Activity on collagenase; format: biochemical; details: radiomarked collagen, 27° C., 16 hours; read-out: C150 (nM) collagenase
T2 construct: the collagenase of the human monocytic stock U937; endogenous in cells; host or cells: U937 human monocytic cell line
T2 sequence (P03956 100-469): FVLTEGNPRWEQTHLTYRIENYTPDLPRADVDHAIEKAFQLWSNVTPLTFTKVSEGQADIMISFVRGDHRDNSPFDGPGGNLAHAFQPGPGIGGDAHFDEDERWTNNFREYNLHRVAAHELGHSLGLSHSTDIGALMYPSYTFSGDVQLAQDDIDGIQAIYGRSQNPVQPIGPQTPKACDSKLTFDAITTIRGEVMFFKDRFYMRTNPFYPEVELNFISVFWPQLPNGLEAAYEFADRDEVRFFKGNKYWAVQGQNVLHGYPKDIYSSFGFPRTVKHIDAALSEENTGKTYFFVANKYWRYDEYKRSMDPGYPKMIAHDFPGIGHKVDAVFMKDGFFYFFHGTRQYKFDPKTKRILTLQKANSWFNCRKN
Protocol: The collagenase was incubated at 27° C. for 16 hours with radiomarked collagen, and its activity was determined by the release of soluble peptides produced by the enzymatic breakdown of the collagen. The inhibiting concentration C150 for each compound was determined by measurement of the activity of the enzyme in the presence of the inhibitor at a concentration ranging between 10^−7 and 10^−12 M (the inhibitor is dissolved at a concentration of 10^−2 M in DMSO, then diluted successively by tenths in the buffer: Tris, HCl 150 mM, pH 7.5; NaCl 0.15 M; CaCl2 10 mM).

[5] = system: release of TNF from the peritoneal macrophages of mice stimulated by LPS; assay: Inhibition of the production of TNF in vitro; format: cell-based; details: mouse peritoneal macrophages, LPS 100 ng/ml, read-out: C150 (μM) TNF
Protocol: The capacity of the compounds according to this invention to inhibit the release of TNF was determined from the peritoneal macrophages of mice stimulated by LPS (Lang, F., Robert, […], Petit, J. Y., J. Pharmacol. Exp. Ther., 275, 171-176, 1995). After an adhesion phase of 2 hours, the cells were treated for 1 hour with the compound to be tested at concentrations ranging between 10^-6 to 10^-9 M (the inhibitor is dissolved in DMSO at 10^-2 M, then at 5.10^-3 M in RPMI 1640 with 5% SVF, then diluted successively by tenths in the same medium), then stimulated by the addition of LPS (100 ng/ml in final concentration). Three hours later, the biological activity of the TNF in the supernatants was determined by a cytotoxicity test using the murine stock L929 in accordance with the operating procedure described by Band, G., Lin, […]., Evans, C. H. (Bioch. Biophys. Acta, 1134, 309-318, 1982). The pg/ml concentration of the TNF of the samples was determined from a murine αTNF standard curve, thus making it possible to define the inhibiting concentration […] of the compounds studied.

Chain of 92 kDa gelatinase of human origin (P14780 94-707): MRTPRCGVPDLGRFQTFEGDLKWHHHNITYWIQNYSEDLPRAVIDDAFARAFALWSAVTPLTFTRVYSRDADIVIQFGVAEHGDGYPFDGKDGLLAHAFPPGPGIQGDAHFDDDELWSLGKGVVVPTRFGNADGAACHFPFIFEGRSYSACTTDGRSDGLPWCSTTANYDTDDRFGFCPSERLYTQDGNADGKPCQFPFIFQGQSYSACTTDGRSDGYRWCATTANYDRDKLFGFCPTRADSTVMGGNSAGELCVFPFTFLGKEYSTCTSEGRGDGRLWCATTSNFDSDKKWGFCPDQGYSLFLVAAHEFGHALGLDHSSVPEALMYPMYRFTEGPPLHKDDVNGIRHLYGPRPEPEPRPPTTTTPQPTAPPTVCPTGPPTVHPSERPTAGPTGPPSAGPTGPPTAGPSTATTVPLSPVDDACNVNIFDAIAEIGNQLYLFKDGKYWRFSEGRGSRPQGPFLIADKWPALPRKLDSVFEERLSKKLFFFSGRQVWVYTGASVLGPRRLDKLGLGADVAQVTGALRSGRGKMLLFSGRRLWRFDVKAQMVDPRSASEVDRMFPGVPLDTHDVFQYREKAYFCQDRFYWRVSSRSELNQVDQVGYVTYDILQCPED
Chain of stromelysine of human origin (P08254 100-477): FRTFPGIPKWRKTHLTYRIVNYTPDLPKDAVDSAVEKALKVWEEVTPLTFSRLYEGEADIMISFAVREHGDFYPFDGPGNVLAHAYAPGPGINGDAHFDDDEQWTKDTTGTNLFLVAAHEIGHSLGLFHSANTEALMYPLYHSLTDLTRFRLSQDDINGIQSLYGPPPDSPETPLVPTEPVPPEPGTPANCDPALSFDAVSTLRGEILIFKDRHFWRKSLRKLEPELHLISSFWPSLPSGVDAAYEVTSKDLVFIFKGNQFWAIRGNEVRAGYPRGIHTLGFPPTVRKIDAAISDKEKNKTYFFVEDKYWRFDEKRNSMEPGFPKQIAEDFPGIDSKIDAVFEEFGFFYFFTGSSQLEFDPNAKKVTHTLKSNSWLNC

Row | Compound | IC50 [1] | IC50 [2] | IC50 [3] | IC50 [4] | IC50 ([5]; Peritoneal macrophage) | gelatinase 92 kDa* (in %) [1] | IC50 [5]
1 | CNC(=O)[C@@H](NC(=O)[C@](O)(CC(C)C)[C@H](C)C(=O)NO)C(C)(C)C [Example 2, N-2-(S)[1(S)(hydroxycarbamoyl)ethyl]-2(S) hydroxy-4-methylpentanoyl 3-methyl-(S) valine N-methylamide] | 16 nM | 3.4 nM | 60 nM | 18 nM | – | – | –
2 | CNC(=O)[C@H](Cc1ccc(OC)cc1)NC(=O)[C@](O)(C(C)C)[C@H](C)C(=O)NO [Example 7, N-2(S) [-1-(S) hydroxycarbamoyl 1(S)ethyl] 2(S) hydroxy-3 methyl butanoyl O-methyltyrosine N-methylamide] | 17 nM | 18 nM | – | 30 nM | 2 µM | – | –
3 | CSCCNC(=O)[C@H](Cc1ccc(Cl)c(Cl)c1)NC(=O)[C@](O)(CC(C)C)[C@H](C)C(=O)NO [Example 21, N-2(S)[1(S)hydroxycarbamoyl-1 ethyl]-2(S) hydroxy-4-methylpentanoyl L-3,4-dichlorophenylalanine N-(2-methylthio-1-ethyl) amide] | – | – | – | 5 nM | 0.4 µM | 83% | –
4 | COCCOCCNC(=O)[C@H](Cc1ccc(Cl)c(Cl)c1)NC(=O)[C@](O)(CC(C)C)[C@H](C)C(=O)NO [Example 23, N-2(S) [1(S) hydroxycarbamoyl-1 ethyl]-2(S) hydroxy 4-methyl pentanoyl L-3,4-dichlorophenylalanine N-(2-(2-methoxyethoxy)1-ethyl)amide] | – | 0.14 nM | – | – | 0.37 µM | 60% | –
5 | CNC(=O)[C@H](Cc1ccc(OC)cc1)NC(=O)[C@](O)(CC(C)C)[C@H](OC)C(=O)NO [Example 31, N-2(S)[(S) hydroxycarbamoyl(S)methoxy]methyl 2(S) hydroxy-4 methyl pentanoyl O-methyl tyrosine N-methylamide] | 140 nM | 18 nM | 90 nM | 120 nM | – | – | –
6 | CNC(=O)[C@H](Cc1ccc(Cl)c(Cl)c1)NC(=O)[C@](O)(CCCc1ccccc1)[C@H](C)C(=O)NO [Example 33, N-2-(S)[1(S)(hydroxycarbamoyl)ethyl]2(S) hydroxy 5-phenylpentanoyl L-3,4-dichlorophenylalanine N-methylamide] | – | 0.01 nM | – | 225 nM | 0.58 µM | 86% | –
7 | CNC(=O)[C@H](Cc1ccc(OC)cc1)NC(=O)[C@](O)(CC(C)C)[C@H](C)S [Example 36, N-2(R)-[(1-thioethyl)] 2(R) hydroxy 4-methyl pentanoyl-o-methyl-L-tyrosine methylamide] | 23 nM | – | – | 500 nM | 3 µM | – | –
8 | CNC(=O)[C@H](Cc1ccc(Cl)c(Cl)c1)NC(=O)[C@@](O)(CS)CC(C)C [Example 37] | 70 nM | – | – | > 1000 nM | 2 µM | – | –

Further lines, results first:

Row | IC50 [1] | IC50 [2] | IC50 [3] | IC50 [4] | IC50 ([5]; Peritoneal macrophage) | gelatinase 92 kDa* (in %) [1] | IC50 [5] | Compound
9 | 0.5 nM | 2.4 nM | 11 nM | 12 nM | – | – | – | COc1ccc(C[C@H](NC(=O)[C@](O)(CC(C)C)[C@H](C)C(=O)NO)C(=O)NCc2ccccc2)cc1 [Example 5, N-2(S)[-1-(S)(hydroxycarbamoyl)-ethyl]-2(S) hydroxy-4-methyl 2entanol O methyl-L-tyrosine phenylmethylamide]
10 | 1.6 nM | 1.6 nM | – | – | 0.27 µM | – | – | CCC[C@H](C(=O)NO)[C@@](O)(CC(C)C)C(=O)N[C@@H](Cc1ccc(Cl)cc1)C(=O)NC [Example 17, N-2(S) hydroxy 3(S) hydroxycarbamoyl 2(S) 1(2-methyl) propyl hexanoyl L-4-chlorophenylalanine N-methyl amide]
11 | 0.001 nM | 0.7 nM | – | 7 nM | 0.5 µM | – | – | CC(C)C[C@@](O)(C(=O)N[C@@H](Cc1ccc(Cl)c(Cl)c1)C(=O)NCCOCCO)[C@H](C)C(=O)NO [Example 19, N-2(S)[1(S)hydroxycarbamoyl-1 ethyl]-2 (S) hydroxy 4-methylpentanoyl L-3,4 dichlorophenylalanine N-hydroxyethyloxyethylamide]
12 | 0.2 nM | 1.6 nM | – | 3.7 nM | 1 µM | – | – | CNC(=O)[C@H](Cc1ccc(Cl)cc1Cl)NC(=O)[C@](O)(CC(C)C)[C@H](C)C(=O)NO [Example 20, N-2(S)[1(S)hydroxycarbamoyl-1 ethyl]-2 (S) hydroxy 4-methylpentanoyl L-2,4-dichlorophenylalanine N-methylamide]
13 | 1.9 nM | 0.8 nM | – | – | > 1 µM | – | – | C[C@H](C(=O)NO)[C@@](O)(CCCc1ccccc1)C(=O)N[C@@H](CC1CCCCC1)C(=O)NCCc1ccccc1 [Example 32, N-2-(S)[1(S)(hydroxycarbamoyl)ethyl]2(S) hydroxy 5-phenyl pentanoyl L-3-cyclohexylalanine 2 phenylethylamide]
14 | 1.1 nM | – | – | 4 nM | 0.3 µM | – | – | CC(C)C[C@@](O)(C(=O)N[C@@H](Cc1ccc(Cl)c(Cl)c1)C(=O)NCCN1CCOCC1)[C@H](C)C(=O)NO [Example 35b]
15 | 0.38 nM | – | – | 6 nM | – | – | 0.86 µM | N-2(S)[1(S)-hydroxycarbamoyl-1 (S) ethyl]-2 (S)-hydroxy-4-methyl pentanoyl L-(3,4)-dichlorophenylalanine N-(2-(4-morpholino)1-ethyl) amide [Example 35a]
